# Test results as given in patent US20140127228A1 (INDIANA UNIVERSITY SCHOOL OF MEDICINE, priority 2012, published 2014).
# “Also recorded” adds a separate entry of the source.
# Tests used:
# [1] = tested on: EDL muscle of mice with PC-3 prostate cancer bone metastases; test: EDL muscle specific force production in mice with PC-3 prostate cancer bone metastases; format: in vivo, mouse; conditions: hypogonadal mice with PC-3 prostate cancer metastatic to bone
# Excerpt: (§1) In embodiment A is shown that body weight is decreased in nude mice inoculated with PC-3 human prostate cancer cells and that osteolytic lesions are present in the tibia and histology of the femur, as shown in X-ray images. In embodiments B and C are shown decreased skeletal muscle cross-sectional area in tumor-bearing mice determined by Micro-CT as described herein. In embodiments D and E are shown decreased body weight (D) and decreased Grip strength (E) in PC-3 tumor bearing mice. […] In embodiment J is shown that RyR1 is oxidized and there is decreased calstabin 1 in the RyR complex from, skeletal muscle (EDL) from mice with metastatic prostate cancer. […] All immunoblots were developed and quantified with the Odyssey system (LI-COR, Inc., Lincoln, Nebr.) using IR labeled anti-mouse and anti-Rabbit IgG (1:10,000 dilution) secondary antibodies. […] Quantification of immunoblots showing the relative nitrotyrosine/SERCA for each group of EDLs tested. *p<0.01 compared to non-cancer controls as analyzed by ANOVA. […]
# Extensor digitorum longus (EDL) muscles are dissected from the hind limbs using micro dissection scissors and forceps. […] To quantify the specific force, the absolute force is normalized to the muscle cross-sectional area, calculated as the muscle weight divided by the length and a muscle density constant of […] as previously described (Yamada et al., 2009).
# [2] = tested on: RyR1; test: RyR1 oxidation, nitrosylation and calstabin 1 depletion in EDL (immunoprecipitation/immunoblot); format: in vivo, mouse; conditions: mice with PC-3 prostate cancer metastatic to bone
# Excerpt: as §1
# Quantification of RyR1 skeletal channel nitrosylation, oxidation and phosphorylation by protein kinase A (PKA) are performed as described (Bellinger et al., 2009; Bellinger et al., 2008b).
# Quantification of depletion of the channel stabilizing subunit calstabin 1 (FKBP12) from skeletal RyR1 by immunoprecipitation techniques are performed as described (Marx et al., 2000). […]
# [3] = tested on: SERCA; test: SERCA oxidation in EDL muscle lysates (immunoprecipitation/immunoblot); format: in vivo, mouse; conditions: prostate cancer mice
# Excerpt: In embodiment A is shown that body weight is decreased in nude mice inoculated with PC-3 human prostate cancer cells and that osteolytic lesions are present in the tibia and histology of the femur, as shown in X-ray images. In embodiments B and C are shown decreased skeletal muscle cross-sectional area in tumor-bearing mice determined by Micro-CT as described herein. In embodiments D and E are shown decreased body weight (D) and decreased Grip strength (E) in PC-3 tumor bearing mice. […] In embodiment J is shown that RyR1 is oxidized and there is decreased calstabin 1 in the RyR complex from, skeletal muscle (EDL) from mice with metastatic prostate cancer. RyR1 was immunoprecipitated from 250 μg of EDL homogenate using an anti-RyR antibody (4 μg 5029 Ab), and the immunoprecipitates were separated on SDS-PAGE gels (6% for RyR, 15% for Calstabin). All immunoblots were developed and quantified with the Odyssey system (LI-COR, Inc., Lincoln, Nebr.) using IR labeled anti-mouse and anti-Rabbit IgG (1:10,000 dilution) secondary antibodies. Immunoblots developed using anti-RyR (clone 34C, 1:5,000), anti-Cys-NO (1:1000, Sigma, St. Louis. MO), anti-DNP (to determine RyR1 oxidation. 1:250), and anticalstabin (1:2500). […] Quantification of immunoblots showing the relative nitrotyrosine/SERCA for each group of EDLs tested. *p<0.01 compared to non-cancer controls as analyzed by ANOVA. […]
# [4] = tested on: PC-3 bone metastases; test: PC-3 prostate cancer bone metastases in mice; format: in vivo, mouse; conditions: 50 mg/kg starting 2 days prior to inoculation
# Excerpt: (§2) These experiments utilize two murine models of prostate cancer bone metastases induced by PC-3 (osteolytic and cachectic; FIGS. 4A-K) or LuCAP23.1 (osteoblastic and not cachectic; FIGS. 5A-B).
# (§3) For all mouse experiments, N=15 for each group of mice for tumors inoculated in the left cardiac ventricle (PC-3) or intratibially (LuCAP23.1) based on power analysis detailed below. Male nude mice are housed in laminar flow isolated hoods with water supplemented with vitamin K and autoclaved mouse chow provided ad libitum. Cells are introduced into mice at 4 wks of age. Animals are anesthetized with ketamine/xylazine and positioned ventral side up.
# Multiple modalities of bone imaging including X-ray and μCT are used to longitudinally monitor the bone lesions and confirmed by histology and quantitative histomorphometry as previously described (Dunn et al., 2009; Guise et al., 1996b; Yin et al., 1999). Muscle mass are followed serially in vivo using the Piximus II system (Wiren et al., 2011) and microCT (Manske et al., 2011).
# [5] = tested on: LuCaP 23.1 human prostate cancer osteoblastic xenograft; test: LuCaP 23.1 osteoblastic prostate cancer xenograft in tibia of nude mice; format: in vivo, mouse
# Excerpt: as §2, §3
# Four-week old, male nude mice were inoculated into the tibia with LuCaP 23.1 human prostate cancer osteoblastic xenograft (n=14-15/group).
# [6] = tested on: mouse mammary carcinomas; conditions: cited from earlier work
# [7] = tested on: human melanoma cells; test: Hfg treatment of human melanoma cells; format: cell-based
# Excerpt: (§4) TGFbeta derived from bone fuels melanoma bone metastasis by inducing tumor secretion of pro-metastatic factors that act on bone cells to change the skeletal microenvironment. […] Hfg is active orally and by intraperitoneal injection, and it has completed Phase I clinical trials in cancer patients. It suppresses the phosphorylation and activation of Smad2 and Smad3 by inducting of Smad7. Overexpression of inhibitory Smad7 has been associated with a reduction on invasive capacity in vitro and anchorage-independent growth, and delays subcutaneous tumor growth in nude mice. The present inventors have shown that Smad7 overexpression decreased melanoma bone metastasis, thus is useful for treating and/or preventing muscle weakness and atrophy as well as other muscle related side effects in cancer patients.
# [8] = tested on: 1205Lu melanoma cells; test: melanoma bone metastasis in nude mice inoculated with 1205Lu melanoma cells; format: in vivo, mouse
# Excerpt: Halofuginone (Hfg) is a synthetic derivative of the plant alkaloid febrifugine, a traditional Chinese herbal medicine. Hfg increases expression of Smad7, an intracellular inhibitor of TGF-beta signaling. […] Hfg has been widely used as a veterinary agent with an excellent safety profile.
# as §4
# [9] = tested on: 1205Lu melanoma cells; conditions: mouse, in vivo; cited from earlier work
# [10] = models of muscular dystrophy; cited from earlier work
# [11] = patients with prostate cancer bone metastases; cited from earlier work
# [12] = 50 or 150 mg/kg/day po from 12 weeks post tumor inoculation
compound,measurement,setting,value
Fc1ccc(Cl)cc1-c1nc(Nc2ccncc2)c2nccnc2n1 [SD-208],muscle (EDL) specific force production,[1],improved muscle specific force production
same,oxidation/nitrosylation/calstabin 1 depletion of skeletal muscle RyR1,[2],prevented oxidation/nitrosylation/calstabin 1 depletion from RyR1; also recorded: prevented oxidation of RyR1
same,oxidation of SERCA,[3],inhibited oxidation of SERCA
same,"PC-3 bone metastases (X-ray, osteolytic lesion area, survival)",[4],highly effective; also recorded: prevents PC-3 bone metastases
same,bone formation,[5]; [12],does not increase
same,tumor growth,[5]; [12],does not increase
same,LuCAP23.1 bone metastases,"[5]; mouse, in vivo",not effective
same,tumor growth in vivo,[6],inhibit
O=C(CC1NCCCC1O)Cn1cnc2cc(Br)c(Cl)cc2c1=O (stereo not shown) [Halofuginone],TGFbeta-induced SMAD-driven transcription,[7],inhibited
same,cell apoptosis,[7],increased
same,cell proliferation,[7],inhibited
same,"expression of TGFbeta target genes (PTHrP, CTGF, CXCR4, IL11)",[7],reducing expression
same,phosphorylation of SMAD proteins in response to TGFbeta,[7],inhibited
same,osteolysis assessed by radiography,"[8]; mice with established bone metastasis, vs placebo",significantly less osteolysis
same,melanoma metastasis to the brain,"[8]; mouse, in vivo",reduce melanoma metastasis to the brain
same,bone metastasis,"[8]; preventive protocol, nude mice inoculated with 1205Lu melanoma cells",inhibited bone metastasis
same,development and progression of bone metastasis caused by melanoma cells,[9],decreases development and progression of bone metastasis
same,muscle function,[10],improve muscle function
denosumab: inhibitor of bone resorption,skeletal morbidity,[11],reduce skeletal morbidity
